The text below walks through data of patent US20100130515A1, “Polymorphs and solvates of a pharmaceutical and method of making” (BIOGEN IDEC INC., priority 2007, published 2010).

The nature of data set [1]: Relative stability of forms A and B by vapour diffusion experiment (XRPD). To be noted: NMP vapour, room temperature; for relative stability of the polymorphs: intimate mixture of forms A and B, followed by XRPD. The data set is classed as physicochemical. As for the experimental part: The relative stabilities of the forms A and B was determined by a vapour diffusion experiment. Approximately equal amounts of the two forms were ground together to produce an intimate mixture. The mixture was packed into a silicon 510-cut recessed wafer XRPD holder and the XRPD of the mixture determined. The holder was then placed in a covered dish containing NMP (a known solvent 1) at room temperature. The mixture was re-examined from time to time to monitor any changes in the XRPD pattern.
The traces from bottom to top in FIG. 8 were recorded initially, at 24 hours, at 3 days, at 1 week, at 10 days, and at 23 days; the topmost traces are a form A reference and a form B reference.

Data set [2] can be described thus: Relative stability of forms D and H by vapour diffusion experiment (XRPD). The data set is classed as physicochemical. To be noted: inferred from the higher desolvation temperature, XRPD results inconclusive. The source says: The relative stabilities of Forms D and H was investigated by a vapour diffusion experiment. Approximately equal amounts of the two forms were combined to produce an intimate mixture. The mixture was packed into a silicon XRPD holder and the XRPD of the mixture determined. The holder was then placed in a covered dish containing THF:NMP approx. 90:10 v/v at room temperature. The mixture was re-examined from time to time to monitor any changes in the XRPD pattern.
There was been no significant change in the XRPD traces over 12 days.

In the next data set the test system is cataleptic responses. The conditions noted are these: cited from earlier work.
In another data set the test system is Parkinsonian patients. The conditions noted are these: cited from earlier work.

For the compound `Cc1cc(Cn2nnc3c(-c4ccco4)nc(N)nc32)ccc1N` [Form A, 3-(4-amino-3-methylbenzyl)-7-(furan-2-yl)-3H-[1,2,3]triazolo[4,5-d]pyrimidin-5-amine], the results for the “relative stability of the polymorphs” value in data set [1] and in data set [1] (listed as form A) were “more stable polymorph” and “more thermodynamically more stable”, respectively.

As to `Cc1cc(Cn2nnc3c(-c4ccco4)nc(N)nc32)ccc1N` [Form B, 3-(4-amino-3-methylbenzyl)-7-(furan-2-yl)-3H-[1,2,3]triazolo[4,5-d]pyrimidin-5-amine], in data set [1] (mixture of forms A and B), the “time point by which the XRPD peaks characteristic of Form B disappear completely” value is no more than 23 days.

For the compound `Cc1cc(Cn2nnc3c(-c4ccco4)nc(N)nc32)ccc1N` [Form H, 3-(4-amino-3-methylbenzyl)-7-(furan-2-yl)-3H-[1,2,3]triazolo[4,5-d]pyrimidin-5-amine], the “relative stability of the THF solvates” value in data set [2] was “more likely to be the stable form”.

`CCCn1c(=O)c2c(nc(/C=C/c3ccc(OC)c(OC)c3)n2C)n(CCC)c1=O` [KF 17837, E-8-(3,4dimethoxystyryl)-1,3-dipropyl-7-methylxanthine]: in the data set on cataleptic responses (in vivo), the “anticataleptic effects of a subthreshold dose of L-DOPA plus benserazide” value is listed as “potentiated”; the “catalepsy induced by haloperidol and reserpine” value is listed as “reduced”. Further, the “cataleptic responses induced by intracerebroventricular CGS 21680” value with cataleptic responses (oral administration) is given as “significantly ameliorated”.

Take `Cn1c(=O)c2[nH]cnc2n(C)c1=O` [theophylline, 1,3-dimethylxanthine]: in the data set on Parkinsonian patients (15 Parkinsonian patients, up to 12 weeks, 150 mg/day), the “mean objective disability scores” value is on record as “significant improvements”. For the same compound, in the data set on Parkinsonian patients (of 15 Parkinsonian patients, up to 12 weeks, 150 mg/day), the “patients reporting moderate or marked subjective improvement” value is given as 11. Also, the serum theophylline levels in the data set with Parkinsonian patients (slow release oral preparation 150 mg/day, after one week) was 4.44 mg/L.
